Test results from patent US10550422B2, “Methods and compositions for labeling nucleic acids” (President and Fellows of Harvard College, priority 2005, dated 2020).

Assays:
[1] = system: HeLa cells; assay: AdU labeling of HeLa cells, stained with Alexa568-alkyne; format: cell-based; settings: 10 μM AdU overnight, 10 μM Alexa568-alkyne; FIG. 16
Protocol: Here HeLa cells were labeled overnight in 10 μM AdU and then stained with 10 μM Alexa568-alkyne using the conditions described herein for staining cells labeled with EdU. FIG. 16 presents two pictures of a field of the stained HeLa cells.

[2] = system: HeLa cells; assay: Time-lapse fluorescence imaging of EdU-labeled live cells stained with TMR-propyl-azide; format: cell-based; settings: 200 nM TMR-propyl-azide, 25 mM ascorbate, 1 mM copper (II) sulfate, 37° C.; FIG. 7
Protocol: Ascorbic acid (from a […] stock in water) was then added to this solution to a final concentration of 50 mM, and the resulting staining solution is mixed thoroughly.
Washes with methanol or ethanol may be performed to obtain low background
To facilitate live microscopic imaging, EdU-labeled cells were plated in coverslip chambers which were mounted on the heated stage (37° C.) of an inverted Nikon TE200)U microscope equipped for wide-field fluorescence microscopy as well as spinning-disk confocal fluorescence microscopy (Yokogama spinning disk confocal head from Perkin-Elmer). […] The cells were imaged by time-lapse fluorescent microscopy (one frame every 15 seconds) to detect the TMR signal accumulating in the nuclei of the EdU-labeled cells.

[3] = system: HeLa cells; assay: Tracing a single sister chromatid: EdU pulse, chase of two cell cycles, Alexa568-azide stain; format: cell-based; settings: EdU pulse during DNA synthesis, Alexa568-azide with permeabilization, FIG. 13
Description: The purpose of the experiment reported herein was to label only one DNA molecule of the two that form a chromosome. That was accomplished by pulsing HeLa cells with EdU during DNA synthesis followed by a chase lasting two cell cycles, as depicted on FIG. 12. […] EdU allowed very nice resolution imaging of chromosomes in cells as shown by FIG. 13.

[4] = system: mouse intestine and brain; assay: In vivo EdU labeling of mice, organ sections stained with Xrhodamine-azide and Hoechst; settings: 200 micrograms EdU intraperitoneally, organs harvested three days later
Protocol: BLAB/C mice were injected with 200 micrograms of EdU intraperitoneally. Three days later, organs were harvested, fixed, embedded in paraffin and sectioned. The sections were then de-waxed and stained with Xrhadomine-azide for 5 minutes, stained with Hoechst, washed and then mounted.

[5] = system: HeLa cells; assay: EdU labeling of HeLa cells, fixed/permeabilized, stained with Xrhodamine-azide (click chemistry); format: cell-based; settings: 1 μM EdU, cell in anaphase, FIG. 11
Protocol: Ethynyl-dU (EdU) was used in tissue culture media (DMEM complemented with penicillin, streptomycin, and fetal calf serum (FCS)) ranging from 10 nM to 1 μM depending on the length of the labeling pulse. For example, if cells to be labeled were synchronized in the S phase, 100 nM to 1 μM of EdU was used for 1 to 2 hours. After labeling, the cells were washed 3 or 4 times with PBS and then tissue culture media was added.
Staining Solution: 100 mM Tris pH 8.5 (from 2 M stock in water), 0.5 to 1 mM CuSO4 (from 1 M stock in water), 0.5 to 1 μM fluorophore-azide (from approximately 10-100 mM stock in DMSO), and water (as required) were mixed together. Ascorbic acid (from a […] stock in water) was then added to this solution to a final concentration of 50-100 mM, and the resulting staining solution is mixed thoroughly using a vortex.
Cells can be fixed by any suitable method, e.g., cells can be fixed by aldehyde fixation (formaldehyde or glutaraldehyde), with or without permeabilization. After fixation, the cells were washed in buffer with or without non-ionic detergent (0.2-0.5% Triton X100). Before staining, cells were rinsed with buffer without detergent (PBS or TBS). The cells were then incubated in the presence of the staining solution for at least 30 minutes. Overnight staining is preferably performed in a cold room. […]

SMILES | detection of AdU in labeled cells [1] | time to complete EdU detection on live cells [2] | DNA molecules of a chromosome labeled after first and second mitosis [3] | EdU incorporation in intestine section ([4]; FIG. 8) | EdU-labeled cells in brain section ([4]; FIG. 10) | EdU stain of cellular DNA (fluorescence microscopy) [5]
[N-]=[N+]=Nc1cn([C@H]2C[C@H](O)[C@@H](CO)O2)c(=O)[nH]c1=O [AdU, 5-azido-2′-deoxyuridine] | clearly detected in the nuclei of the labeled interphase cells as well as in the condensed chromosomes of mitotic cells | – | – | – | – | –
C#Cc1cn([C@H]2C[C@H](O)[C@@H](CO)O2)c(=O)[nH]c1=O [EdU, 5-ethynyl-2′deoxyuracil] | – | complete within minutes | In the first mitosis after labeling, both DNA molecules were labeled while in the second mitosis only one DNA molecule was labeled | The cells with red nuclei are the cells which incorporated EdU and their descendants | A sole EdU-labeled cell can be easily identified | only the DNA replicating during the pulse was labeled
